For series [1], the system named is PC-3 prostatic cancer cell.
Protocol: (§1) Pharmacology Research: cytotoxicity research upon PC-3 prostatic cancer and DU145 breast cancer
(§2) Human cell HRMPC performing cell activity of PC-3 prostatic cancer and DU145 breast cancer is placed into PRMI1640 culture medium to be cultured under a temperature of 37° C. in a 5% CO2/95% air. The PRMI1640 culture medium contains 10% FBS and penicillin (100 U/ml)/streptomycin (100 U/ml).
(§3) Subsequently, the cell survivability is quantified through colorimetry (Sulforhodamine B Assay).

Protocol for DU145 breast cancer cell: as §1, §2, §3

The term IC50 denotes the concentration needed to halve the response being measured. Low readings indicate greater potency, high ones weaker potency. Take “para-methylisopropylphenylchloride-1-(para-diethylaminophenyl)-3-[(1-methyl-3-indazolyl)imino]-1-oxypropylruthenium [Embodiment 6]”: the IC50 (in series [1]; with DU145 breast cancer cell) was greater than 30 µM throughout. Regarding “para-methylisopropylphenylchloride-1-carbonyl-3-[(2,6-diisopropyl)n-phenyl]-1-phenyl-2-butyleneruthenium [Embodiment 3]”, the 50% inhibitory concentration (IC50) in series [1] is 2.39 ± 0.13 µM; in the series with DU145 breast cancer cell, 5.37 ± 0.06 µM. For “para-methylisopropylphenylchloride-1-carbonyl-3-[(2-methoxyl) n-phenyl]-1-phenyl-2-butyleneruthenium [Embodiment 2]”, the IC50 is 5.68 ± 0.12 µM in series [1] and 14.3 ± 0.28 µM with DU145 breast cancer cell. For “para-methylisopropylphenylchloride-1-carbonyl-3-n-phenyl-1-phenyl-2-butyleneruthenium [Embodiment 1]” the same measures were 5.66 ± 0.2 µM and 9.31 ± 1.48 µM.

Consider “para-methylisopropylphenylchloride-2-(2-indazolyl)1-phenyl-1-oxyethylruthenium [Embodiment 7]”, for which, in the series with DU145 breast cancer cell, the IC50 is greater than 30 µM. For the substance “para-methylisopropylphenylchloride-2-[1-(2-naphthyl)azomethine]phenoxyruthenium [Embodiment 5]”, the IC50 in series [1] came out at 4.58 ± 0.32 µM; in the series with DU145 breast cancer cell, 14.2 ± 0.35 µM. The corresponding values for “para-methylisopropylphenylchloride-2-[1-para-tolueneimino]phenoxyruthenium [Embodiment 4]” are 3.01 ± 1.17 µM and 13.1 ± 0.95 µM.

These data come from patent US10544178B2, “Metal complex compound and preparing method and usage thereof” (National Changhua University of Education, priority 2018, dated 2020).
